Results on 6 molecules are retold here after patent USRE47245E1, “Pro-angiogenic peptides and uses thereof” (Susavion Biosciences, Inc., priority 2006, dated 2019).

Assay [1] concerns peripheral blood mononuclear cells (PBMCs). The assay can be described thus: Regulation of cytokine release: cytokine antibody array on medium of PBMC cultures. The class given is cell-based, human. As for the experimental part: To determine whether the peptides regulate induction or inhibition of release of cytokines, cultured peripheral blood mononuclear cells (PBMCs) were treated with one peptide embodiment of the invention and, after 4 hour incubation, the medium was collected and assayed for changes in the amounts of 40 different cytokines. The peptide construct containing four copies of WNSTL (SEQ ID NO:1), illustrated in FIG. 2A, was added at a concentration of 100 nM in each of the assays. The PBMC cultures were established with cells from Cellular Technology, Ltd. (Shaker Heights, Ohio). Approximately 3 million cells of frozen human PBMCs were thawed at 37° C. and transferred to a 50 mL conical tube where 8 mL of wash medium were added slowly. Then an additional 8 mL were added and swirled to mix. The cells were then centrifuged at 330 g for 10 min, the supernatant was removed and the pellet was resuspended in 10 mL wash medium and centrifuged as above. The washed cells were then resuspended in RPMI 1640 medium containing 10% FBS to about 6 million cells per mL and 100 μL of the suspension were added into each well of a 96-well microtiter plate and incubated overnight at 37° C. in humidified 5% CO2. After 24 hr, the medium was replaced with 200 μL fresh RPMI 1640 medium containing 10% FBS and incubated at 37° C. in humidified 5% CO2 for 2 days. For the data shown in TABLE 1, an aliquot of the peptide construct was added to samples in duplicate at a final concentration of 5 nM or 100 nM and incubated at 37° C. in humidified 5% CO2 for 4 hr. For other experiments (data not included), the incubation was continued for 24 hr. The medium was then removed and stored at […]. The samples were analyzed for production of cytokines. One set of control cells was not treated with an experimental agent. A second set of control cells was treated with LPS, the agent commonly used to induce production of a variety of inflammatory cytokines.
Assays of cytokine levels in samples of culture media were performed using methods developed by RayBiotech, Inc. (Norcross, Ga.). In this technology, membrane arrays of antibodies against cytokines were incubated with samples of media. After washing, the array was incubated with a cocktail of all antibodies tagged with biotin. The membrane was then washed free of unbound antibodies and incubated with streptavidin labeled with a fluorescent dye. After a final wash, the membrane arrays were read in a fluorescence detector and the intensities of the spots quantitated to obtain relative values.
One set of control samples was not treated with peptide and a second set of control samples was treated with lipopolysaccharide (LPS) in the absence of the peptide construct. The structure of the construct is illustrated in FIG. 2A. […] The decrease in IL-8 concentration in the peptide-treated sample, as compared with the amount of IL-8 in the sample treated with the proto-typical inflammatory agent LPS, is particularly notable. […] The increase in the proangiogenic PDGF-BB and the decrease in the inflammatory IL-8, without concomitant stimulation of inflammation, are of particular importance with respect to wound healing. […]

Assay [2] concerns macrophages in PBMC cultures. Kind of assay: Stimulation of phagocytosis: macrophages engulfing microspheres opsonized with anti-HIV antibodies. The class given is cell-based, human. To be noted: PBMC cultures pretreated; control cultures 0 to 3 beads. As for the experimental part: The activity of the peptides to stimulate phagocytosis was assessed by the ability of macrophages to engulf microspheres opsonized with anti-HIV antibodies. A biotin-tagged peptide epitope of a surface protein of HIV-1 was bound to streptavidin on the surface of the beads. An antibody preparation that was raised against this epitope was then bound to the HIV peptide. The beads were then washed and presented to PBMC cultures pretreated with peptides. Macrophages in cultures not treated with peptides had little, if any, phagocytic activity. In multiple control cultures, the number of beads within a macrophage-like cell ranged from 0 to 3. In the cultures treated with peptide constructs containing four copies of the peptide sequences WNSTL (SEQ ID NO:1), NQHTPR (SEQ ID NO:2), or VQATQS (SEQ ID NO:8), an average of 10 beads were counted in each phagocytic cell, with no substantial difference between peptide constructs.

For assay [3], the system named is 786-0 human renal cell adenocarcinoma cell line. The assay can be described thus: Pro-angiogenic activity: growth of xenograft tumor in nude mouse. Type of assay: in vivo, nude mouse (nu/nu). The note with it: in combination with the WNSTL construct. The protocol:
Tumors require vascularization to obtain nutrients to support growth. Therefore, stimulation of growth of a tumor in response to administration of a construct of this invention is an indication of angiogenesis. For this example, a xenograph model system with the nude mouse (nu/nu) was used to determine the effect of peptide on growth of 786-0 human renal cell adenocarcinoma cell line injected into the flank of a mouse so as to induce a tumor. After the tumor was established, peptide was injected subcutaneously on alternate days. The weight of the tumor was estimated by calculation of the volume.
FIG. 4 illustrates data resulting from assays for pro-angiogenic activity for one embodiment of the invention. […] The peptide was also assayed in combination with Sorafenib, an anti-angiogenic drug.

The mark [4] stands for this setting: PBMCs in serum, 4 hr, construct 100 nM.

Where no end group is shown, it is not given here.

With “NQHTPR: branched construct: four copies of core sequence NQHTPR, each via GGGS linker on tri-lysine framework (also: tetramer: four copies each via GGGS linker on tri-lysine framework (branched))”, in assay [1] (setting [4]), the “Relative concentration of Eotaxin” value amounted to 57, the “Relative concentration of Eotaxin-2” value is on record as 310, the “Relative concentration of IL-12p40” value was 45 and the “Relative concentration of IL-12p70” value was 65. Further, in assay [1] (setting [4]), the “Relative concentration of IL-15” value is reported as 146, the “Relative concentration of IL-16” value was 8, the “Relative concentration of IL-17” value turned out to be 14 and the “Relative concentration of IL-21” value is recorded as 200. In assay [1] (setting [4]), the “Relative concentration of M-CSF” value amounted to 116, the “Relative concentration of MCP-2” value was found to be 90, the “Relative concentration of MIG” value is reported as 100 and the “Relative concentration of MIP-1b” value turned out to be 777. Moreover, in assay [1] (setting [4]), the “Relative concentration of TIMP-2” value was 110, the “Relative concentration of TNF-β” value is 84 and the “Relative concentration of sTNF RII” value was 26. For the same molecule, in assay [2], the “average beads counted in each phagocytic cell” value (shortened to “average beads counted”) was found to be 10 beads.

As for “VSNQH: construct containing four copies of core sequence VSNQH (also: four copies of core sequence, branched construct)”, in assay [1] (setting [4]), the “Relative concentration of Eotaxin” value was 47, the “Relative concentration of Eotaxin-2” value turned out to be 470, the “Relative concentration of GM-CSF” value was determined as 96 and the “Relative concentration of ICAM-1” value is listed as 70. Moreover, in assay [1] (setting [4]), the “Relative concentration of IFN-γ” value stood at 170, the “Relative concentration of IL-1α” value is recorded as 322, the “Relative concentration of IL-12p40” value is on record as 52 and the “Relative concentration of IL-12p70” value is 117. Further, in assay [1] (setting [4]), the “Relative concentration of IL-15” value amounted to 137, the “Relative concentration of IL-17” value is given as 21, the “Relative concentration of IL-21” value is given as 130 and the “Relative concentration of IP-10” value is 377. For the same molecule, in assay [1] (setting [4]), the “Relative concentration of MCP-2” value is given as 97, the “Relative concentration of MIG” value was 94, the “Relative concentration of PDGF-BB” value is recorded as 82 and the “Relative concentration of TIMP-2” value was 285. Also, in assay [1] (setting [4]), the “Relative concentration of TNF-α” value was found to be 138 and the “Relative concentration of TNF-β” value stood at 93.

On to “VQATQS: construct containing four copies of core sequence VQATQS (also: four copies, branched construct)”, for which, in assay [1] (setting [4]), the “Relative concentration of Eotaxin-2” value was 401, the “Relative concentration of I-309” value is given as 101, the “Relative concentration of IL-4” value came out at 64 and the “Relative concentration of IL-6” value came out at 167. Further, in assay [1] (setting [4]), the “Relative concentration of IL-10” value was 67, the “Relative concentration of IL-12p40” value came to 74, the “Relative concentration of IL-12p70” value came to 112 and the “Relative concentration of IL-15” value came out at 134. In assay [1] (setting [4]), the “Relative concentration of IL-16” value is on record as 10, the “Relative concentration of IL-17” value is listed as 21, the “Relative concentration of IL-21” value was determined as 90 and the “Relative concentration of IP-10” value is listed as 334. Also, in assay [1] (setting [4]), the “Relative concentration of M-CSF” value stood at 90, the “Relative concentration of MCP-1” value is 1,966, the “Relative concentration of PDGF-BB” value turned out to be 83 and the “Relative concentration of TGF-β1” value was found to be 83. For the same molecule, in assay [1] (setting [4]), the “Relative concentration of TIMP-2” value is reported as 175, the “Relative concentration of TNF-α” value is 98, the “Relative concentration of TNF-β” value is 91 and the “Relative concentration of sTNF RI” value is listed as 75. Besides, the “Relative concentration of sTNF RII” value in assay [1] (setting [4]) came to 20. The “average beads counted” value in assay [2] came to 10 beads.

For “lipopolysaccharide [LPS, reference compound]”, in assay [1] (PBMCs in serum, 4 hr), the “Relative concentration of IL-2” value is listed as 90, the “Relative concentration of IL-3” value came out at 132, the “Relative concentration of IL-13” value is on record as 125 and the “Relative concentration of MIP-1a” value is listed as 237. In assay [1] (PBMCs in serum, 4 hr), the “Relative concentration of MIP-1d” value stood at 38 and the “change in the amount of the inflammatory cytokine IL-6 compared to untreated control samples” value is given as “significantly elevated”. Also, in assay [1] (setting [4]), the “Relative concentration of Eotaxin” value came out at 31, the “Relative concentration of Eotaxin-2” value is 469, the “Relative concentration of GCSF” value was 120 and the “Relative concentration of GM-CSF” value was determined as 106. Besides, in assay [1] (setting [4]), the “Relative concentration of I-309” value was 39, the “Relative concentration of ICAM-1” value stood at 53, the “Relative concentration of IFN-γ” value was 158 and the “Relative concentration of IL-1α” value is 246. In addition, in assay [1] (setting [4]), the “Relative concentration of IL-1β” value was 47, the “Relative concentration of IL-4” value came to 49, the “Relative concentration of IL-6” value is 4,375 and the “Relative concentration of IL-6sR” value is given as 52. Further, in assay [1] (setting [4]), the “Relative concentration of IL-7” value is on record as 178, the “Relative concentration of IL-8” value is recorded as 840, the “Relative concentration of IL-10” value stood at 218 and the “Relative concentration of IL-11” value was found to be 26. For the same molecule, in assay [1] (setting [4]), the “Relative concentration of IL-12p40” value came out at 46, the “Relative concentration of IL-12p70” value was 89, the “Relative concentration of IL-15” value was found to be 104 and the “Relative concentration of IL-16” value is listed as 2. In assay [1] (setting [4]), the “Relative concentration of IL-17” value was found to be 10, the “Relative concentration of IP-10” value is 268, the “Relative concentration of M-CSF” value worked out at 59 and the “Relative concentration of MCP-2” value turned out to be 177. Further, in assay [1] (setting [4]), the “Relative concentration of MIG” value is on record as 66, the “Relative concentration of MIP-1b” value is recorded as 1,828, the “Relative concentration of PDGF-BB” value came out at 56 and the “Relative concentration of RANTES” value is 114. In assay [1] (setting [4]), the “Relative concentration of TGF-β1” value was 62, the “Relative concentration of TIMP-2” value is 92, the “Relative concentration of TNF-α” value worked out at 93 and the “Relative concentration of TNF-β” value was determined as 95. In addition, in assay [1] (setting [4]), the “Relative concentration of sTNF RI” value is 58 and the “Relative concentration of sTNF RII” value is 26. Also, in assay [1] (in one experiment, untreated control 98), the “relative IL-6 concentration” value was 5,879.

On to `CNC(=O)c1cc(Oc2ccc(NC(=O)Nc3ccc(Cl)c(C(F)(F)F)c3)cc2)ccn1` [Sorafenib, reference compound], for which the “effect on the peptide-enhanced tumor growth” value in assay [3] is listed as “strongly (but not completely) inhibited”.

As for “IFN-γ: cytokine Interferon-gamma used as comparison treatment [reference compound]”, in assay [2], the “average beads counted” value is on record as “roughly 15 beads”.
